The target in one test is T1, JAK3 (Homo sapiens, UniProt P52333).
T1 sequence (P52333 1-1124): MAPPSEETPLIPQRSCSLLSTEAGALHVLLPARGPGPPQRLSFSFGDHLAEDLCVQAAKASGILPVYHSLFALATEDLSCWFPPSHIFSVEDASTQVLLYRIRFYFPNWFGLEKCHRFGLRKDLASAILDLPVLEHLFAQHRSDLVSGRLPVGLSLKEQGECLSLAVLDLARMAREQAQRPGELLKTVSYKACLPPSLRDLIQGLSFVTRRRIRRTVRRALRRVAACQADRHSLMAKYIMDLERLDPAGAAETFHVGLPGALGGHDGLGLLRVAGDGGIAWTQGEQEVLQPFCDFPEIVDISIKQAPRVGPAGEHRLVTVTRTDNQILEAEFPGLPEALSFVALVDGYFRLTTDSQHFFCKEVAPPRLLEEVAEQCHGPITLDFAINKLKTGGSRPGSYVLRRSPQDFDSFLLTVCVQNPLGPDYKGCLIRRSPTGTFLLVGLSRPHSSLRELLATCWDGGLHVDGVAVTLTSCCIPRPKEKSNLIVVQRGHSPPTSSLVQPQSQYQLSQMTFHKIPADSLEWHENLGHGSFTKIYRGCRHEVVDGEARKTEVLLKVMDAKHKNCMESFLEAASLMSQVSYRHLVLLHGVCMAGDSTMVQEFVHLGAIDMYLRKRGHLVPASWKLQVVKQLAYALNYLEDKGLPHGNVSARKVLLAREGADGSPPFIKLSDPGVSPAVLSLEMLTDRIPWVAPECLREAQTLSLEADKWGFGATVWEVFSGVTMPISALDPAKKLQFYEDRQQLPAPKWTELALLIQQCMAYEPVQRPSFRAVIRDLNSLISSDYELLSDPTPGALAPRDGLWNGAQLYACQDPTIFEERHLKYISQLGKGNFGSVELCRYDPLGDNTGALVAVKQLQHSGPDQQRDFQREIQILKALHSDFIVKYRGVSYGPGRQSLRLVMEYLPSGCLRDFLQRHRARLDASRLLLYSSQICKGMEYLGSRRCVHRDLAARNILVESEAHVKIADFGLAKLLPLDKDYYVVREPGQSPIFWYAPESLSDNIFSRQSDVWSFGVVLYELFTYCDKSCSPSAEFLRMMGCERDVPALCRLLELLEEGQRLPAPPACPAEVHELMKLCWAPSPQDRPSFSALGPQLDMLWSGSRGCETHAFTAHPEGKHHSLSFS
The test is described as follows: Biochemical potency on JAK3, TR-FRET (LANCE Ultra kinase assay). The conditions noted are these: ATP corresponding to Km; cell-free; read-out: JAK3 inhibitory activity (pIC50) (converted). The procedure:
(§1) The objective of this study was to assess the capability of compounds to inhibit all 4 JAK isoforms activity in a cell-free environment. Assay for JAK 1, JAK 2, JAK 3 and TYK2 were performed by Time-resolved fluorescence resonance energy transfer (TR-FRET) technology. It consists in the interaction of two labelled binding partners detected by the energy transfer from an excited donor to an acceptor dye and measurement of light emission by the acceptor dye. LANCE Ultra kinase assay was used. In presence of JAK 1, JAK 2, JAK 3 and TYK2 kinases and ATP (corresponding to Km), the ULight peptide substrate (LANCE Ulight-JAK-1 (Tyr1023) Peptide, Perkin Elmer, TRF0121) is phosphorylated. It is then captured by Eu-anti-phospho-substrate antibody (LANCE Eu-W1024 Anti-phosphotyrosine (PT66), Perkin Elmer, AD0069), which bring the Eu-chelate donor and ULight acceptor dyes into close proximity. Upon excitation at 320 nm, the Eu-chelate transfers its energy to the ULight dye, resulting in a fluorescent light emission at 665 nm.
(§2) Serial dilutions of compounds in pure DMSO are prepared from 10 mM DMSO stock solutions. Compounds were tested in 384-well plate for 11 consecutive 5-fold dilutions starting from 20 μM highest concentration (20 μM-[…]). 200 nL of compound were transferred from mother plate to test plate by using Mosquito (TTP labtech). Assay was performed in 384-well Perkin Elmer test plate in 20 μL assay volume (kinase reaction) and 40 μL total volume (stopping reagent and antibody detection reagents). In 10 μL of substrate solution (peptide+ATP) 30/50/20/10 nM of peptide and 20/0.7/0.2/12 μM of ATP were added for JAK 1, JAK 2, JAK 3 and TYK2 respectively. 10 μL of enzyme solution was added to kinase reaction at these concentrations: 0.15/0.083/0.025/0.144 ng/μL of JAK 1, JAK 2, JAK 3 and TYK2 respectively. After shaking and 1.5 h of incubation at r.t., 20 μL of Stop (10 μL EDTA) and Detection mixture (10 μL Europium-anti-phospho antibody, final: 0.5 nM) were added. Reading was performed after 1 h of incubation on a En Vision 2104 reader (Perkin Elmer).
(§3) Calculation of IC50 data, curves and QC analysis was performed by using Excel tool and GraphPadPrism software, v9. Briefly, individual concentration-effect curves are generated by plotting the logarithm of the tested concentration of tested compounds (X) vs. corresponding percent inhibition values (Y) using least squares (ordinary) fit. Best fit IC50 values are calculated using Log (inhibitor) vs. normalized response—Variable slope equation, where Y=100/(1+10^((LogIC50−X)*HillSlope)). QC criteria parameters (Z′, S:B, R2, HillSlope) were checked for every IC50 curve. Calculation of IC50 data, curves and QC analysis were made using Excel tools and GraphPadPrism software. QC criteria parameters: Z′≥0.5, Hill Slope range 0.5 to 5, S:B>2.
On the technique in general: Time-resolved FRET reads energy transfer from a long-lived donor to a nearby acceptor.

A further test addresses JAK2 (Homo sapiens, UniProt O60674). As to the kind of experiment: Biochemical potency on JAK2, TR-FRET (LANCE Ultra kinase assay). The note with it: ATP corresponding to Km; cell-free; read-out: JAK2 inhibitory activity (pIC50) (converted). The procedure: as §1, §2, §3
The target in the next test is TYK2 (Homo sapiens, UniProt P29597). As to the kind of experiment: Biochemical potency on Tyk2, TR-FRET (LANCE Ultra kinase assay). The note with it: ATP corresponding to Km; cell-free; read-out: TYK2 inhibitory activity (pIC50) (converted). The procedure:
as §1, §2, §3

For test [1], the system named is pSTAT6 in BEAS-2B human cell line. As to the kind of experiment: Inhibition of IL-13 induced pSTAT6 in BEAS. The class given is cell-based. The conditions noted are these: for IC50: Homo sapiens, BEAS-2B, 0.5 h, IL-13 trigger, 30 min, parent compound; for Fold difference parent vs predicted acid metabolite: ratio=IC50 predicted acid metabolite/IC50 ester. The procedure: BEAS-2B human cell line was seeded (100.000 cells/well) and incubated for 48 h at 37° C., 5% CO2, 95% humidity. Compounds were added and incubated 30 min followed by IL-13 as trigger. After 30 min incubation, cells were lysed and pSTAT6 determined by Fastscan phospho-stat6 (Tyr641) sandwich ELISA kit (cell signaling). Inhibitors were tested at 11 consecutive 5-fold dilutions starting from 10 μM (10 μM-[…]) in duplicate. Calculation of IC50 data, curves and QC analysis were made using Excel tools and GraphPadPrism software. QC criteria parameters: Z′≥0.35, Hill Slope range 0.5 to 5, S:B>2.

The target in another test is JAK1 (Homo sapiens, UniProt P23458). As to the kind of experiment: Biochemical potency on JAK1, TR-FRET (LANCE Ultra kinase assay). The conditions noted are these: ATP corresponding to Km; cell-free; read-out: JAK1 inhibitory activity (pIC50) (converted). The procedure:
as §1, §2, §3

Bounds are passed on as bounds.

Chain of TYK2 (P29597 whole entry): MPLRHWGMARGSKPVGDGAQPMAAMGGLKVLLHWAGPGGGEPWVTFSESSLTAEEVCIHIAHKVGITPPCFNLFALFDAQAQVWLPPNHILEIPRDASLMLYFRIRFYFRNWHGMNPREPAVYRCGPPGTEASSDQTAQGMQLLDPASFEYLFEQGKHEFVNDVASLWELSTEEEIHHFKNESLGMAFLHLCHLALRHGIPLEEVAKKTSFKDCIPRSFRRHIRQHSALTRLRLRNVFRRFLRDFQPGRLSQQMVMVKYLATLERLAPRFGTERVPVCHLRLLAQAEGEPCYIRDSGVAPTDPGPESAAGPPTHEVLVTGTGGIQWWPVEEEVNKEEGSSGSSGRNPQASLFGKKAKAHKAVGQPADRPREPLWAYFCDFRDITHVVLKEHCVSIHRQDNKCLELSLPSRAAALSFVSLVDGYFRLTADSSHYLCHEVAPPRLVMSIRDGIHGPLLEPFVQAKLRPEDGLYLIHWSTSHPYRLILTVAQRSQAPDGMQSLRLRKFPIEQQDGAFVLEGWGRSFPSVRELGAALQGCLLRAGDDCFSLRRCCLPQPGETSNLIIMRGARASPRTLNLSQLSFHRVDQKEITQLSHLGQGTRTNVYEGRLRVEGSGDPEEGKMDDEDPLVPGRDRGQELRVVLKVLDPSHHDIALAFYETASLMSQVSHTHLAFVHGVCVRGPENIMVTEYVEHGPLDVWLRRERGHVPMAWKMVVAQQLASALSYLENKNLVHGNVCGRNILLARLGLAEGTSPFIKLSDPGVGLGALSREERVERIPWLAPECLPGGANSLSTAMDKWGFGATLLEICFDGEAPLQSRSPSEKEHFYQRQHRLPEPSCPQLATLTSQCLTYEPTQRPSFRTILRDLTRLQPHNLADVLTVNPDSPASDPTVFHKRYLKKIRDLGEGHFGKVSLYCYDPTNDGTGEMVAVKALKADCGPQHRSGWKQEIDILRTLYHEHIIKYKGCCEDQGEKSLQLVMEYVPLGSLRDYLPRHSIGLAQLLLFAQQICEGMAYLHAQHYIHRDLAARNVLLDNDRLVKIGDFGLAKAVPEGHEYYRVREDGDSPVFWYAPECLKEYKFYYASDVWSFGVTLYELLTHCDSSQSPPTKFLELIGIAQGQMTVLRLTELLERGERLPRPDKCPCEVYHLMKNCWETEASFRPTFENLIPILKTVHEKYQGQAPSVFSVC
Chain of JAK2 (O60674 whole entry): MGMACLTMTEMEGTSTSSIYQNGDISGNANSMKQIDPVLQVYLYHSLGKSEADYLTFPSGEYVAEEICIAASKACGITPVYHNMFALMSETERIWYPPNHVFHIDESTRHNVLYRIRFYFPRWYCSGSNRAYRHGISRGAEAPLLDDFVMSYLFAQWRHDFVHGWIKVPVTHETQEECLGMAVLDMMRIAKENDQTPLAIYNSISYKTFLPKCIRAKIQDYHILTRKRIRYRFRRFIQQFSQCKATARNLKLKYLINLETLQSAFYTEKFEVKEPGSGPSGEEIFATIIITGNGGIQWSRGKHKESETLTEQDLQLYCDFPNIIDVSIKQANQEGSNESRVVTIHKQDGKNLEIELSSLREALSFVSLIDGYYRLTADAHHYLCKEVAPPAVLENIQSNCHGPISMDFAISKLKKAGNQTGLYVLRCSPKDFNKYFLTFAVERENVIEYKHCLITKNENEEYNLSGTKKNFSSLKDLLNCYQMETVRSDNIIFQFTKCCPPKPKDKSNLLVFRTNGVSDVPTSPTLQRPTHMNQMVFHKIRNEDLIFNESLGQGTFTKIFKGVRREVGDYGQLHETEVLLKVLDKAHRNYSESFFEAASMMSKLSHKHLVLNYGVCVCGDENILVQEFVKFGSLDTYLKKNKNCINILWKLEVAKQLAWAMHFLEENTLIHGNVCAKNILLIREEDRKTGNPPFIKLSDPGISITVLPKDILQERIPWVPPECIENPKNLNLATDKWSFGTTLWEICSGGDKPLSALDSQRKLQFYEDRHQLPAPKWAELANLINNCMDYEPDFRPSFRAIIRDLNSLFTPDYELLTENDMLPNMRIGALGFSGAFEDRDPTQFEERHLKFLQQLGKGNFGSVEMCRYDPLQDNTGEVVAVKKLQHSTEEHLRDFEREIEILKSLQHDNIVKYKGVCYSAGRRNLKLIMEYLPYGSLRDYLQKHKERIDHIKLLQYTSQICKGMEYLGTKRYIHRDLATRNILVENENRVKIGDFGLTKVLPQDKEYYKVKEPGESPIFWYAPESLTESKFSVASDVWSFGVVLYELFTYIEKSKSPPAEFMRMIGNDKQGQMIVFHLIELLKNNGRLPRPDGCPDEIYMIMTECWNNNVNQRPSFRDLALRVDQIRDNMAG
Chain of JAK1 (P23458 whole entry): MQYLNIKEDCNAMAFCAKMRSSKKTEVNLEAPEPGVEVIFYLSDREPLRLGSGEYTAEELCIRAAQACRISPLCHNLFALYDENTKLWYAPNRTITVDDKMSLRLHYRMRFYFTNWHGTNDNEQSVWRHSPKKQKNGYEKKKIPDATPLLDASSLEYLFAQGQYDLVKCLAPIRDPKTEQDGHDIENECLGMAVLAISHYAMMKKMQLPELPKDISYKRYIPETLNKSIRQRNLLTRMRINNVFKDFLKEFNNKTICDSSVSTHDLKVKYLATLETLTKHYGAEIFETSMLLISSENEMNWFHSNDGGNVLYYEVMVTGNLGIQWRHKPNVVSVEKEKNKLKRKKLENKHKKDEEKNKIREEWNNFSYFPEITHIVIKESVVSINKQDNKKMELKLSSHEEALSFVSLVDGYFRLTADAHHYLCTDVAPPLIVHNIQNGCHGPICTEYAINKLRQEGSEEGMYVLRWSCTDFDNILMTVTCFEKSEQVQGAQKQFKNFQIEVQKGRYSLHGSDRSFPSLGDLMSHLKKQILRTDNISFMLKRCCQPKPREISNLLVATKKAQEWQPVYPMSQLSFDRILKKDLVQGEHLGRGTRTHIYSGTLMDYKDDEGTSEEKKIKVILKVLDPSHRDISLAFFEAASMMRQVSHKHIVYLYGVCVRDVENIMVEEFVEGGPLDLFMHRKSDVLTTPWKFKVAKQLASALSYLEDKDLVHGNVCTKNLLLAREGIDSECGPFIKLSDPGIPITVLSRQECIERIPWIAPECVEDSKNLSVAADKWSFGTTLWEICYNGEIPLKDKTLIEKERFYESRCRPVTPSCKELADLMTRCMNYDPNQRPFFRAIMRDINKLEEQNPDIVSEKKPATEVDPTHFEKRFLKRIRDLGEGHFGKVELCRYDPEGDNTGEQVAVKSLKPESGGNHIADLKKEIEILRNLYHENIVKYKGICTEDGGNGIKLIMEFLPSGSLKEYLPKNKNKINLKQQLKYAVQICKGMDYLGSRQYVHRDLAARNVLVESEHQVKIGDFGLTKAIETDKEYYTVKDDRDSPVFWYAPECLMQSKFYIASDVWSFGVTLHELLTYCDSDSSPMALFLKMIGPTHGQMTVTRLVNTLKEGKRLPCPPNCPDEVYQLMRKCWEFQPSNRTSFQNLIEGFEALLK

As to `CCOC(=O)[C@H]1C[C@@H](OC(=O)Nc2nn(-c3cc4c(cc3OC)NCCS4)c3cc(-c4cnn5cccnc45)ncc23)C1` [Example 2, ethyl (1s,3s)-3-(((1-(6-methoxy-3,4-dihydro-2H-benzo[b][1,4]thiazin-7-yl)-6-(pyrazolo[1,5-a]pyrimidin-3-yl)-1H-pyrazolo[4,3-c]pyridin-3-yl)carbamoyl)oxy)cyclobutane-1-carboxylate], the IC50 at JAK3 was ≤ 5.01 nM; at JAK2 it was ≤ 5.01 nM; on TYK2, 5.01 to 50.1 nM; in test [1], 5.01 to 50.1 nM; at JAK1, ≤ 5.01 nM.

In the case of `CCOC(=O)COC(=O)Nc1nn(-c2cc3c(cc2OC)NCCS3)c2cc(-c3cnn4cccnc34)ncc12` [Example 3, ethyl 2-(((1-(6-methoxy-3,4-dihydro-2H-benzo[b][1,4]thiazin-7-yl)-6-(pyrazolo[1,5-a]pyrimidin-3-yl)-1H-pyrazolo[4,3-c]pyridin-3-yl)carbamoyl)oxy)acetate], the IC50 on JAK3 was ≤ 5.01 nM; on JAK2 it was ≤ 5.01 nM; at TYK2 it was 5.01 to 50.1 nM; in test [1], ≤ 5.01 nM; at JAK1 it was ≤ 5.01 nM. The “Fold difference parent vs predicted acid metabolite” value in test [1] is given as “kkkk (ratio≥200)”.

Regarding `CCOC(=O)C1CCN(CCOC(=O)Nc2nn(-c3cc4c(cc3OC)NCCS4)c3cc(-c4cnn5cccnc45)ncc23)CC1` [Example 4, ethyl 1-(2-(((1-(6-methoxy-3,4-dihydro-2H-benzo[b][1,4]thiazin-7-yl)-6-(pyrazolo[1,5-a]pyrimidin-3-yl)-1H-pyrazolo[4,3-c]pyridin-3-yl)carbamoyl)oxy)ethyl)piperidine-4-carboxylate], the IC50 (at JAK3; on JAK2; at TYK2; in test [1]; at JAK1) was ≤ 5.01 nM in each case. Moreover, in test [1], the “Fold difference parent vs predicted acid metabolite” value is “kk (100>ratio≥10)”.

Take `COCC(C)(C)OC(=O)C1CCN(CCNC(=O)c2nn(-c3cc4c(cc3OC)NCCO4)c3cc(-c4cnn5cccnc45)ncc23)CC1` [Example 5, 1-methoxy-2-methylpropan-2-yl 1-(2-(1-(6-methoxy-3,4-dihydro-2H-benzo[b][1,4]oxazin-7-yl)-6-(pyrazolo[1,5-a]pyrimidin-3-yl)-1H-pyrazolo[4,3-c]pyridine-3-carboxamido)ethyl)piperidine-4-carboxylate]: the IC50 at JAK3 was ≤ 5.01 nM; on JAK2 it was ≤ 5.01 nM; at TYK2, 5.01 to 50.1 nM; in test [1], ≤ 5.01 nM; on JAK1, ≤ 5.01 nM. The “Fold difference parent vs predicted acid metabolite” value in test [1] is given as “kkkk (ratio≥200)”.

As to `CCCOC(=O)CN(C)CCNC(=O)c1nn(-c2cc3c(cc2OC)NCCO3)c2cc(-c3cnn4cccnc34)ncc12` [Example 6, propyl N-(2-(1-(6-methoxy-3,4-dihydro-2H-benzo[b][1,4]oxazin-7-yl)-6-(pyrazolo[1,5-a]pyrimidin-3-yl)-1H-pyrazolo[4,3-c]pyridine-3-carboxamido)ethyl)-N-methylglycinate], the IC50 on JAK3 was ≤ 5.01 nM; on JAK2 it was ≤ 5.01 nM; at TYK2 it was > 50.1 nM; in test [1] it was 5.01 to 50.1 nM; on JAK1, 5.01 to 50.1 nM.

Turning to `COc1cc2c(cc1-n1nc(C(=O)OCCCN(C)C)c3cnc(-c4cnn5cccnc45)cc31)SCCN2` [Example 7, 3-(dimethylamino)propyl 1-(6-methoxy-3,4-dihydro-2H-benzo[b][1,4]thiazin-7-yl)-6-(pyrazolo[1,5-a]pyrimidin-3-yl)-1H-pyrazolo[4,3-c]pyridine-3-carboxylate], the IC50 (on JAK3; at JAK2; on TYK2; in test [1]; on JAK1) was ≤ 5.01 nM in each case.

`COc1cc2c(cc1-n1nc(C(=O)OCCCN3CCN(C)CC3)c3cnc(-c4cnn5cccnc45)cc31)SCCN2` [Example 8, 3-(4-methylpiperazin-1-yl)propyl 1-(6-methoxy-3,4-dihydro-2H-benzo[b][1,4]thiazin-7-yl)-6-(pyrazolo[1,5-a]pyrimidin-3-yl)-1H-pyrazolo[4,3-c]pyridine-3-carboxylate]: the IC50 was ≤ 5.01 nM at JAK3; ≤ 5.01 nM at JAK2; ≤ 5.01 nM at TYK2; 5.01 to 50.1 nM in test [1]; ≤ 5.01 nM at JAK1.

With `CCOC(=O)C1CCN(CCNC(=O)c2nn(-c3cc4c(cc3OC)NCCO4)c3cc(-c4cnn5cccnc45)ncc23)CC1` [Example 9, ethyl 1-(2-(1-(6-methoxy-3,4-dihydro-2H-benzo[b][1,4]oxazin-7-yl)-6-(pyrazolo[1,5-a]pyrimidin-3-yl)-1H-pyrazolo[4,3-c]pyridine-3-carboxamido)ethyl)piperidine-4-carboxylate], the IC50 at JAK3 was ≤ 5.01 nM; on JAK2, ≤ 5.01 nM; on TYK2, 5.01 to 50.1 nM; in test [1], ≤ 5.01 nM; at JAK1, ≤ 5.01 nM. Moreover, the “Fold difference parent vs predicted acid metabolite” value in test [1] is recorded as “kkkk (ratio≥200)”.

Values taken from US20260337208A1, “HETEROCYCLIC DERIVATIVES AS JANUS KINASE INHIBITORS” (CHIESI FARMACEUTICI S.P.A., priority 2022, published 2026).
